{
  "source": "patent US10059968B2",
  "about": "“Method for increasing lipid content in microorganisms and modified microorganisms therefrom” (Reliance […], priority 2014, dated 2018)",
  "test_system": "Chlamydomonas reinhardtii CW-15 cells",
  "assay": "Nile Red Assay of lipid content in cells grown with cycloheximide",
  "format": "cell-based",
  "description": "FIG. 4A illustrates the graphical representation of fluorescence observed for Chlamydomonas reinhardtii CW-15 cells (Day 4) in Tris Acetate Phosphate medium grown with and without cycloheximide using Nile Red Assay;\nChemical inhibition of protein synthesis is carried out using cycloheximide. Chlamydomonas reinhardtii CW-15 (Chlamydomonas Resource Center, USA), is grown in the presence of varying amounts of cycloheximide (50 μM to 500 μM) to find out the effect of inhibition of protein synthesis on lipid content. […] FIGS. 4B and 4C depict the Nile Red stained cells of Chlamydomonas reinhardtii CW-15 cells grown without the protein inhibitor and in the presence of the protein inhibitor, respectively.",
  "data": [
    {"smiles": "C[C@@H]1C[C@@H]([C@H](O)CC2CC(=O)NC(=O)C2)C(=O)[C@@H](C)C1", "note": "[cycloheximide]", "values": [
      {"measurement": "lipid content (Nile Red fluorescence)", "setting": "Chlamydomonas reinhardtii CW-15 grown with cycloheximide 50 μM to 500 μM vs without, Day 4, Tris Acetate Phosphate medium", "value": "increase in lipid content"},
      {"measurement": "lipid content (Nile Red fluorescence)", "setting": "cells grown in the presence of 50 μM of cycloheximide", "value": "Highest lipid content"},
      {"measurement": "lipid content (Nile Red fluorescence)", "setting": "higher amounts of cycloheximide (more than 200 μM)", "value": "decrease in the lipid content"}
    ]}
  ]
}
